Data set [1] concerns Human immunodeficiency virus. As to the kind of experiment: Antiviral activity against HIV 3B assessed as inhibition of infection of NCK45-beta-Gal cells after 48 hrs. The format is functional, organism-based. Particulars: Human immunodeficiency virus 1, 3B.
The nature of data set [2]: Cytotoxicity against human NCK45 cells at 10 uM. The format is cell-based. The note with it: nck45, 10 µM.
In data set [3] the test system is Human immunodeficiency virus. The experiment in a line: Antiviral activity against HIV 3B assessed as prevention of early stage infection of NCK45-beta-Gal cells up to 48 hrs. The format is functional, organism-based.

Active and inactive are the calls of the source. The calls are words filed in the database; no cut-off is given here.

As to `COc1ccc(-c2ccc3c(c2)SN2CCCN=C32)cc1`, the EC50 (as a rule, the concentration that produces a half-maximal response) in data set [1] was determined as 90 nM. In data set [2], the Activity result is “Toxic”.
Taken in the same sequence, the figures for `Brc1ccc2c(c1)SN1CCCN=C21` were 220 nM and “Non-toxic”.
The like results for `COc1ccc2c(c1)SN1CCCN=C21` were, in that order, 580 nM and “Non-toxic”.
Taken in the same sequence, the figures for `c1cncc(-c2ccc3c(c2)SN2CCCN=C32)c1` were 560 nM and “Non-toxic”.
Consider `N=C1Sc2ccccc2C2=NCCCN12`, for which, in data set [3], the inhibition entry was “Active”. In addition, the EC50 in data set [1] came out at 300 nM.
Turning to `Oc1ccc(-c2ccc3c(c2)SN2CCCN=C32)cc1`, the EC50 in data set [1] stood at 1280 nM. Also, in data set [2], the Activity result is “Non-toxic”.
For `c1ccc2c(c1)SN1CCCN=C21`, the inhibition entry in data set [3] was “Active”. Further, the EC50 in data set [1] is 290 nM. Besides, in data set [2], the Activity result is recorded as “Non-toxic”.
Consider `c1cc(-c2ccc3c(c2)SN2CCCN=C32)cs1`, for which the half-maximal effective concentration (EC50) in data set [1] amounted to 80 nM. Moreover, in data set [2], the Activity result is listed as “Non-toxic”.
Consider `COc1ccc2c(c1)C1=NCCCN1S2`, for which the EC50 in data set [1] worked out at 2110 nM. Also, the Activity result in data set [2] is recorded as “Non-toxic”.
The like results for `c1cc(-c2ccc3c(c2)SN2CCCN=C32)ccn1` were, in that order, 560 nM and “Non-toxic”.
Taken in the same sequence, the figures for `COc1cccc(-c2ccc3c(c2)SN2CCCN=C32)c1` were 100 nM and “Non-toxic”.
Taken in the same sequence, the figures for `COC(=O)c1ccc(-c2ccc3c(c2)SN2CCCN=C32)cc1` were 160 nM and “Non-toxic”.
In the case of `FC(F)(F)c1ccc2c(c1)SN1CCCN=C21`, the half-maximal effective concentration (EC50) in data set [1] worked out at 1280 nM. In data set [2], the Activity result is recorded as “Non-toxic”.
Taken in the same sequence, the figures for `O=[N+]([O-])c1ccc2c(c1)SN1CCCN=C21` were 1790 nM and “Non-toxic”.
Taken in the same sequence, the figures for `Oc1cccc(-c2ccc3c(c2)SN2CCCN=C32)c1` were 1470 nM and “Non-toxic”.
Taken in the same sequence, the figures for `FC(F)(F)c1ccc2c(c1)C1=NCCCN1S2` were 1780 nM and “Non-toxic”.
Take `O=[N+]([O-])c1cccc(-c2ccc3c(c2)SN2CCCN=C32)c1`: the 50% effective concentration (EC50) in data set [1] amounted to 120 nM. In data set [2], the Activity entry is on record as “Non-toxic”.
Taken in the same sequence, the figures for `CC(=O)Nc1ccc2c(c1)SN1CCCN=C21` were more than 10000 nM and “Non-toxic”.
The like results for `Brc1cccc2c1SN1CCCN=C21` were, in that order, more than 10000 nM and “Non-toxic”.
The like results for `Brc1ccc2c(c1)C1=NCCCN1S2` were, in that order, 1010 nM and “Non-toxic”.
For `COC(=O)c1cccc(-c2ccc3c(c2)SN2CCCN=C32)c1`, the inhibition result in data set [3] was “Active”. Further, the half-maximal effective concentration (EC50) in data set [1] came to 50 nM. Moreover, the Activity result in data set [2] is given as “Non-toxic”.
`O=[N+]([O-])c1ccc(-c2ccc3c(c2)SN2CCCN=C32)cc1`: the EC50 in data set [1] worked out at 80 nM. In addition, in data set [2], the Activity entry is on record as “Non-toxic”.
Taken in the same sequence, the figures for `c1ccc2cc(-c3ccc4c(c3)SN3CCCN=C43)ccc2c1` were 120 nM and “Non-toxic”.
Taken in the same sequence, the figures for `c1ccc(-c2ccc3c(c2)SN2CCCN=C32)cc1` were 300 nM and “Non-toxic”.
The like results for `c1cn(-c2ccc3c(c2)SN2CCCN=C32)nn1` were, in that order, 420 nM and “Non-toxic”.
Take `c1ccc2c3c(ccc2c1)C1=NCCCN1S3`: the EC50 in data set [1] is more than 1000 nM. In addition, in data set [2], the Activity result is listed as “Toxic”.
The like results for `c1ccc(-c2ccc3c(c2)SN2CCCN=C32)nc1` were, in that order, 340 nM and “Non-toxic”.
On to `c1coc(-c2ccc3c(c2)SN2CCCN=C32)c1`, for which, in data set [3], the inhibition entry is “Active”. The EC50 in data set [1] came out at 50 nM. Further, the Activity result in data set [2] is “Non-toxic”.
As for `c1cnn(-c2ccc3c(c2)SN2CCCN=C32)c1`, the concentration for a half-maximal effect (EC50) in data set [1] was determined as 410 nM. The Activity result in data set [2] is on record as “Non-toxic”.
Taken in the same sequence, the figures for `c1cc2c(cc1-c1ccc3c(c1)SN1CCCN=C31)OCO2` were 160 nM and “Non-toxic”.
`Cc1ccc2c(c1)C1=NCCCN1S2`: the EC50 in data set [1] stood at 850 nM. In data set [2], the Activity entry is listed as “Non-toxic”.
Taken in the same sequence, the figures for `c1ccc(-c2ccc3c(c2)C2=NCCCN2S3)cc1` were 560 nM and “Non-toxic”.

For the origin of these results see ChEMBL document CHEMBL3399992, “Identification of anti-HIV agents with a novel benzo[4,5]isothiazolo[2,3-a]pyrimidine scaffold” (Bioorg Med Chem, 2015).
